According to the NIST ThermoML archive (doi:10.1016/j.jct.2008.10.010):

Experiment: molar heat capacity at constant pressure; xn = mol fraction of the nth substance listed
Settings: 101.3 kPa, Liquid, Small sample (50 mg) DSC

CCC(C)(C)O [2-methylbutan-2-ol] + CCCCCCC
Settings | molar heat capacity at constant pressure [J/K/mol]
336.14 K, x1 = 0.1 | 252.29
336.14 K, x1 = 0.1547 | 260.02
336.14 K, x1 = 0.1999 | 265.26
336.14 K, x1 = 0.2993 | 273.56
336.14 K, x1 = 0.4051 | 279.11
336.14 K, x1 = 0.4986 | 282.65
336.14 K, x1 = 0.5981 | 285.05
336.14 K, x1 = 0.7015 | 286.5
336.14 K, x1 = 0.8023 | 286.51
336.14 K, x1 = 0.9139 | 285.7
336.14 K, x1 = 0.9609 | 284.91
337.15 K, x1 = 0.0061 | 240.08
337.15 K, x1 = 0.0249 | 241
337.15 K, x1 = 0.0494 | 244
337.15 K, x1 = 0.1 | 252.41
337.15 K, x1 = 0.1547 | 260.16
337.15 K, x1 = 0.1999 | 265.46
337.15 K, x1 = 0.2993 | 273.86
337.15 K, x1 = 0.4051 | 279.59
337.15 K, x1 = 0.4986 | 283.2
337.15 K, x1 = 0.5981 | 285.63
337.15 K, x1 = 0.7015 | 287.22
337.15 K, x1 = 0.8023 | 287.25
337.15 K, x1 = 0.9139 | 286.44
337.15 K, x1 = 0.9609 | 285.69
338.14 K, x1 = 0.0061 | 240.6
338.14 K, x1 = 0.0249 | 241.26
338.14 K, x1 = 0.0494 | 244.22
338.14 K, x1 = 0.1 | 252.49
338.14 K, x1 = 0.2993 | 274.14
338.14 K, x1 = 0.4051 | 280.08
338.14 K, x1 = 0.4986 | 283.63
338.14 K, x1 = 0.5981 | 286.18
338.14 K, x1 = 0.7015 | 287.86
338.14 K, x1 = 0.8023 | 287.94
338.14 K, x1 = 0.9139 | 287.19
338.16 K, x1 = 0.1547 | 260.35
338.16 K, x1 = 0.1999 | 265.67
338.16 K, x1 = 0.9609 | 286.41
339.14 K, x1 = 0.0061 | 241
339.14 K, x1 = 0.0249 | 241.65
339.14 K, x1 = 0.0494 | 244.45
339.14 K, x1 = 0.1 | 252.62
339.14 K, x1 = 0.1547 | 260.43
339.14 K, x1 = 0.1999 | 265.8
339.14 K, x1 = 0.2993 | 274.34
339.14 K, x1 = 0.4051 | 280.35
339.14 K, x1 = 0.4986 | 284.12
339.14 K, x1 = 0.5981 | 286.77
339.14 K, x1 = 0.7015 | 288.43
339.14 K, x1 = 0.8023 | 288.55
339.14 K, x1 = 0.9139 | 287.89
339.14 K, x1 = 0.9609 | 287.02
340.15 K, x1 = 0.0061 | 241.53
340.15 K, x1 = 0.0249 | 242.15
340.15 K, x1 = 0.0494 | 244.83
340.15 K, x1 = 0.1 | 252.82
340.15 K, x1 = 0.1547 | 260.57
340.15 K, x1 = 0.1999 | 266.02
340.15 K, x1 = 0.2993 | 274.71
340.15 K, x1 = 0.4051 | 280.76
340.15 K, x1 = 0.4986 | 284.68
340.15 K, x1 = 0.5981 | 287.28
340.15 K, x1 = 0.7015 | 289.07
340.15 K, x1 = 0.8023 | 289.24
340.15 K, x1 = 0.9139 | 288.58
340.15 K, x1 = 0.9609 | 287.73
341.14 K, x1 = 0.0249 | 242.51
341.14 K, x1 = 0.9139 | 289.17
341.16 K, x1 = 0.0061 | 241.89
341.16 K, x1 = 0.0494 | 245.03
341.16 K, x1 = 0.1 | 252.79
341.16 K, x1 = 0.1547 | 260.64
341.16 K, x1 = 0.1999 | 266.06
341.16 K, x1 = 0.2993 | 274.84
341.16 K, x1 = 0.4051 | 281
341.16 K, x1 = 0.4986 | 284.87
341.16 K, x1 = 0.5981 | 287.66
341.16 K, x1 = 0.7015 | 289.5
341.16 K, x1 = 0.8023 | 289.74
341.16 K, x1 = 0.9609 | 288.3
342.14 K, x1 = 0.0061 | 242.38
342.14 K, x1 = 0.0249 | 242.91
342.14 K, x1 = 0.0494 | 245.35
342.14 K, x1 = 0.1 | 253
342.14 K, x1 = 0.1547 | 260.67
342.14 K, x1 = 0.1999 | 266.17
342.14 K, x1 = 0.2993 | 275.1
342.14 K, x1 = 0.4051 | 281.32
342.14 K, x1 = 0.4986 | 285.37
342.14 K, x1 = 0.5981 | 288.22
342.14 K, x1 = 0.7015 | 290.08
342.14 K, x1 = 0.8023 | 290.39
342.14 K, x1 = 0.9139 | 289.86
342.14 K, x1 = 0.9609 | 288.96
343.15 K, x1 = 0.0061 | 242.71
343.15 K, x1 = 0.0249 | 243.18
343.15 K, x1 = 0.0494 | 245.62
343.15 K, x1 = 0.1 | 253.03
343.15 K, x1 = 0.1547 | 260.73
343.15 K, x1 = 0.1999 | 266.34
343.15 K, x1 = 0.2993 | 275.23
343.15 K, x1 = 0.4051 | 281.6
343.15 K, x1 = 0.4986 | 285.7
343.15 K, x1 = 0.5981 | 288.61
343.15 K, x1 = 0.7015 | 290.51
343.15 K, x1 = 0.8023 | 290.89
343.15 K, x1 = 0.9139 | 290.38
343.15 K, x1 = 0.9609 | 289.53
344.16 K, x1 = 0.0061 | 243.26
344.16 K, x1 = 0.0249 | 243.63
344.16 K, x1 = 0.0494 | 245.97
344.16 K, x1 = 0.1 | 253.15
344.16 K, x1 = 0.1547 | 260.83
344.16 K, x1 = 0.1999 | 266.48
344.16 K, x1 = 0.2993 | 275.42
344.16 K, x1 = 0.4051 | 281.89
344.16 K, x1 = 0.4986 | 286.07
344.16 K, x1 = 0.5981 | 289.06
344.16 K, x1 = 0.7015 | 291.07
344.16 K, x1 = 0.8023 | 291.49
344.16 K, x1 = 0.9139 | 291.02
344.16 K, x1 = 0.9609 | 290.18
345.14 K, x1 = 0.0061 | 243.73
